One data set has as its target T1, PPARδ-RXRα heterodimer (Homo sapiens, UniProt Q03181).
T1 construct: expressed in transfected cells; host or cells: COS-1
T1 sequence (Q03181 1-441): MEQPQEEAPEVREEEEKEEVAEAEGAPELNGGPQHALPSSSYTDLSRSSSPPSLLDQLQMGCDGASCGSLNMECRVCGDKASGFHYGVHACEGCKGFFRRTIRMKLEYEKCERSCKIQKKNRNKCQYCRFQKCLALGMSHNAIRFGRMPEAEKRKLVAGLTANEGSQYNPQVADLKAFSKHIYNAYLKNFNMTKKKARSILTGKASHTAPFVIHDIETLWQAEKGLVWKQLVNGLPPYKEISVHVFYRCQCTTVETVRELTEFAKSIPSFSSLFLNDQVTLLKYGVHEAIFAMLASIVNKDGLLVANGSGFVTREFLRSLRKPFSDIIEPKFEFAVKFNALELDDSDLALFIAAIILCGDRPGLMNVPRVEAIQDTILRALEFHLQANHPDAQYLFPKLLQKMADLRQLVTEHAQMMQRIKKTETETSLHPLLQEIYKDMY
T1 sequence (P19793 1-462 partner): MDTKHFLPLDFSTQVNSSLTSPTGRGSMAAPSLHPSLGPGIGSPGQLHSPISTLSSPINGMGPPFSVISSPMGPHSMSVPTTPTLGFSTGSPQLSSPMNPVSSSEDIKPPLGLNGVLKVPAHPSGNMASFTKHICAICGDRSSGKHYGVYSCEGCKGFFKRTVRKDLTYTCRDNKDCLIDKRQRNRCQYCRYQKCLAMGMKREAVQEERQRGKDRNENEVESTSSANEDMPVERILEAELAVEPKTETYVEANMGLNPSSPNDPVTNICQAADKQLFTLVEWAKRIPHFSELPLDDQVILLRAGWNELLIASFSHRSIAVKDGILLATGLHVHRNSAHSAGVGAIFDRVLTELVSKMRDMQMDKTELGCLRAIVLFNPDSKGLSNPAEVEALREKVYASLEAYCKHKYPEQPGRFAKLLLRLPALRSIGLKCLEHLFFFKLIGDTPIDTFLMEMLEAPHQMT
Kind of data set: PPARδ-RXRα heterodimer ligand activity, luciferase reporter in COS-1 transformant (Test Example 4). The format is cell-based. The settings on record: COS-1 transformant (hPPARδ, hRXRα, reporter), 36-48 hours, concentration for 50% of the maximum fold induction. On the procedure:
The transformant obtained in Reference Example 9a was suspended in DMEM medium (produced by Life Technologies, Inc., USA) containing 0.1% fatty acid-free bovine serum albumin (BSA) (produced by Wako Pure Chemical Industries, Ltd.), and inoculate to each well of a 96-well white plate (produced by Corning Costar Corporation, USA) by 80 μl at 1×10^4 cells/well. Then the test compound (20 μl) was added and cultured at 37° C. under 5% CO2 for 36-48 hours. After removing the medium from the 96-well white plate, 40 μl of PIKKAGENE LT 7.5 (produced by Wako Pure Chemical Industries, Ltd.) diluted twice with HBSS (HANKS' BALANCED SALT SOLUTION)(produced by BIO WHITTAKER Inc., USA), was added. After stirring, the luciferase activity was determined using 1420 ARVO Multilabel Counter (produced by PerkinElmer Inc., USA).
A fold induction was calculated based on the luciferase activity of each test compound by taking the luciferase activity in the non-treatment group as 1. The values of the test compound concentration and the fold induction were analyzed using PRISM (produced by GraphPad Software Inc. USA) to calculate the EC50 values, the effective concentration of a test compound for 50% of the maximum fold induction.
COS-1 cells were inoculated to a 150 cm^2 cell culture flask (produced by Corning Costar Corporation, USA) at the density of 5×10^6 cells/50 ml, and cultured at 37° C. under 5% CO2 conditions for 24 hours. Subsequently, a DNA was introduced into the cell under the condition shown below using Lipofectamine (produced by Invitrogen, USA).
First, Lipofectamine (125 μl), PLUS Reagent (100 μl, produced by Invitrogen, USA), plasmid pMCMVneo-hPPARδ (2.5 μg) obtained in Reference Example 3a, plasmid pMCMVneo-hRXRα (2.5 μg) obtained in Reference Example 4a and reporter plasmid pGL3-4ERPP-TK neo (5 μg) obtained in Reference Example 5a, and pRL-tk (5 μg, produced by Promega, USA) were mixed with opti-MEM (5 ml, produced by Invitrogen, USA) to give a transfection mixture.
Then, the above-mentioned transfection mixture and opti-MEM (20 ml) were added to COS-1 cells washed with opti-MEM, and the cells were cultured at 37° C. under 5% CO2 conditions for 3 hours. DMEM medium (25 ml, produced by Life Technologies, Inc., USA) containing 0.1% fatty acid-free bovine serum albumin (BSA) (produced by Wako Pure Chemical Industries, Ltd.) was added to the obtained COS-1 cells, and the cells were cultured at 37° C. under 5% CO2 conditions for 18-24 hours to give a transformant.

`CCOc1nn(-c2ccc(C(F)(F)F)cn2)cc1CCCOc1cc(CC(=O)O)ccc1OC` [Example 131, [3-(3-{3-ethoxy-1-[5-(trifluoromethyl)-2-pyridyl]-1H-pyrazol-4-yl}propoxy)-4-methoxyphenyl]acetic acid] showed a melting point of 142 to 143 °C. Further, the EC50 on PPARδ-RXRα heterodimer was 2.7 nM.
Consider `CCCc1nn(-c2ccc(C(F)(F)F)cn2)cc1CCCOc1cc(CCC(=O)O)cc(OC)c1` [Example 92, 3-[3-methoxy-5-(3-{3-propyl-1-[5-(trifluoromethyl)-2-pyridyl]-1H-pyrazol-4-yl}propoxy)phenyl]propionic acid], for which the melting point was in the range of 98 to 99 °C. The compound also came in with an EC50 on PPARδ-RXRα heterodimer of 1.9 nM.
With `CCCc1nn(-c2ccc(C(F)(F)F)cn2)cc1CCCOc1ccc(C(C)(C)C(=O)O)cc1` [Example 157, 2-methyl-2-[4-(3-{3-propyl-1-[5-(trifluoromethyl)-2-pyridyl]-1H-pyrazol-4-yl}propoxy)phenyl]propanoic acid], the melting point was 84 to 85 °C. Moreover, the EC50 on PPARδ-RXRα heterodimer turned out to be 4.7 nM.
The like results for `CCOc1cc(OCCCc2cn(-c3ccc(C(F)(F)F)cn3)nc2-c2ccccc2)ccc1CCC(=O)O` [Example 99, 3-[2-ethoxy-4-(3-{3-phenyl-1-[5-(trifluoromethyl)-2-pyridinyl]-1H-pyrazol-4-yl}propoxy)phenyl]propanoic acid] were, in that order, 135 to 136 °C and 0.55 nM.
The like results for `CC(C)c1nn(-c2ccc(C(F)(F)F)cn2)cc1CCCCOc1cc(CCC(=O)O)n(-c2ccccc2)n1` [Example 49, 3-[3-(4-{3-isopropyl-1-[5-(trifluoromethyl)-2-pyridinyl]-1H-pyrazol-4-yl}butoxy)-1-phenyl-1H-pyrazol-5-yl]propanoic acid] were, in that order, 137 to 138 °C and 1.7 nM.
The like results for `CCCCOc1cc(OCCCc2cn(-c3ccc(C(F)(F)F)cn3)nc2OCC)ccc1CCC(=O)O` [Example 118, 3-[2-butoxy-4-{3-(3-ethoxy-1-[5-(trifluoromethyl)-2-pyridinyl]-1H-pyrazol-4-yl}propoxy)phenyl]propanoic acid] were, in that order, 123 to 124 °C and 7.2 nM.
`CCCc1nn(-c2ccc(C(F)(F)F)cn2)cc1CCCOc1cc(CC(=O)O)cc(OC)c1` [Example 169, [3-methoxy-5-(3-{3-propyl-1-[5-(trifluoromethyl)-2-pyridyl]-1H-pyrazol-4-yl}propoxy)phenyl]acetic acid] gave a melting point of 139 to 140 °C. Besides, the EC50 on PPARδ-RXRα heterodimer came to 5.7 nM.
For `CCOc1nn(-c2ccc(C(F)(F)F)cn2)cc1CCOc1ccc(CCC(=O)O)c(C)c1` [Example 76, 3-[4-(2-{3-ethoxy-1-[5-(trifluoromethyl)-2-pyridinyl]-1H-pyrazol-4-yl}ethoxy)-2-methylphenyl]propanoic acid], in that order: 117 to 119 °C and 1.9 nM.
The like results for `CCOc1nn(-c2ccc(C(F)(F)F)cn2)cc1CCOc1cccc(CC(=O)O)c1` [Example 62, [3-(2-{3-ethoxy-1-[5-(trifluoromethyl)-2-pyridinyl]-1H-pyrazol-4-yl}ethoxy)phenyl]acetic acid] were, in that order, 128 to 130 °C and 0.81 nM.
`CCCc1nn(-c2ccc(C(F)(F)F)cn2)cc1CCCCOc1cc(CC(=O)O)ccc1OC` [Example 63, [4-methoxy-3-(4-{3-propyl-1-[5-(trifluoromethyl)-2-pyridinyl]-1H-pyrazol-4-yl}butoxy)phenyl]acetic acid] returned a melting point of 147 to 148 °C. At PPARδ-RXRα heterodimer, the EC50 is 9.5 nM.
`CCOc1nn(-c2ccc(C(F)(F)F)cc2)cc1CCCOc1ccccc1CC(=O)O` [Example 182, [2-(3-{3-ethoxy-1-[4-(trifluoromethyl)phenyl]-1H-pyrazol-4-yl}propoxy)phenyl]acetic acid]: the melting point was in the range of 114 to 115 °C. This compound registered an EC50 on PPARδ-RXRα heterodimer of 5.6 nM.
`COc1cc(CCC(=O)O)ccc1OCCCc1cn(-c2ccc(C(F)(F)F)cn2)nc1C` [Example 129, 3-[3-methoxy-4-(3-{3-methyl-1-[5-(trifluoromethyl)-2-pyridyl]-1H-pyrazol-4-yl}propoxy)phenyl]propionic acid] displayed a melting point of 136 to 137 °C. Moreover, the EC50 at PPARδ-RXRα heterodimer came out at 4.9 nM.
For `O=C(O)Cc1cccc(OCCCc2cn(-c3ccc(C(F)(F)F)cn3)nc2-c2ccccc2)c1` [Example 124, [3-(3-{3-phenyl-1-[5-(trifluoromethyl)-2-pyridyl]-1H-pyrazol-4-yl}propoxy)phenyl]acetic acid], in that order: 132 to 133 °C and 2.4 nM.
With `CCOc1ccc(CC(=O)O)cc1OCCCc1cn(-c2ccc(C(F)(F)F)cn2)nc1C(C)C` [Example 200, [4-ethoxy-3-(3-{3-isopropyl-1-[5-(trifluoromethyl)-2-pyridyl]-1H-pyrazol-4-yl}propoxy)phenyl]acetic acid], the melting point is 116 to 117 °C. The compound further yielded an EC50 at PPARδ-RXRα heterodimer of 5.9 nM.
For the compound `COc1cc(CC(=O)O)ccc1OCCCc1cn(-c2ccc(C(F)(F)F)cn2)nc1C(C)C` [Example 278, [3-methoxy-4-(3-{1-[5-(trifluoromethyl)-2-pyridyl]-3-isopropyl-1H-pyrazol-4-yl}propoxy)phenyl]acetic acid], the melting point fell in the range of 134 to 135 °C. Moreover, the response on PPARδ-RXRα heterodimer was half-maximal at 6 nM (EC50).
The like results for `COc1cc(OCc2cn(-c3ccc(C(F)(F)F)cn3)nc2C)ccc1CCC(=O)O` [Example 122, 3-[2-methoxy-4-({3-methyl-1-[5-(trifluoromethyl)-2-pyridyl]-1H-pyrazol-4-yl}methoxy)phenyl]propionic acid] were, in that order, 158 to 159 °C and 4.9 nM.
Compound `CCOc1nn(-c2ccc(C(F)(F)F)cc2)cc1CCCOc1cc(CCC(=O)O)n(-c2ccccc2)n1` [Example 111, 3-[3-(3-{3-ethoxy-1-[4-(trifluoromethyl)phenyl]-1H-pyrazol-4-yl}propoxy)-1-phenyl-1H-pyrazol-5-yl]propanoic acid] yielded a melting point of 126 to 127 °C. This compound displayed an EC50 at PPARδ-RXRα heterodimer of 6.1 nM.
The like results for `CCCc1nn(-c2ccc(C(F)(F)F)cn2)cc1CCCOc1cc(CC(=O)O)ccc1F` [Example 91, [4-fluoro-3-(3-{3-propyl-1-[5-(trifluoromethyl)-2-pyridyl]-1H-pyrazol-4-yl}propoxy)phenyl]acetic acid] were, in that order, 88 to 89 °C and 6 nM.
`CCOc1cc(OCCCc2cn(-c3ccc(C(F)(F)F)cn3)nc2OC(C)C)ccc1CCC(=O)O` [Example 154, 3-[2-ethoxy-4-(3-{3-isopropoxy-1-[5-(trifluoromethyl)-2-pyridyl]-1H-pyrazol-4-yl}propoxy)phenyl]propanoic acid] returned a melting point of 128 to 129 °C. This compound also displayed an EC50 on PPARδ-RXRα heterodimer of 1.5 nM.

For the origin of these results see patent US20060148858A1, “1, 2-Azole derivatives with hypoglycemic and hypolipidemic activity” (priority 2002, published 2006).
